US11485987B2, “Methods for inducing bioorthogonal reactivity” (University of Delaware, priority 2015, dated 2022)

Legend:
[1] = Dihydrotetrazine oxidative stability (UV-vis); assay type: physicochemical
Text: A challenge to the development of catalytic methods for turning on the tetrazine ligation was the identification of a DHTz/Tz pair that would be stable in both oxidation states (FIG. 1, panel B). For most redox couples, either the DHTz is too readily oxidized in air (e.g., 1), or the Tz is too reactive toward water and other nucleophiles (e.g., 2). The inventors show here that the dipyridyl DHTz/Tz pair (3/4) has good stability in both states (FIG. 1, panel C). Dihydrotetrazines 3 are highly resistant toward background oxidation in organic solvents, and a number of derivatives have been synthesized and shown stable even to silica gel chromatography. […] Aqueous solutions of 3a were handled in glassware that had been first rinsed with 2.0 mM EDTA in PBS to remove adventitious metal impurities. After standing in the dark at 25° C. in PBS buffer, a solution of 3a was monitored by UV-vis and shown to retain 99 and 96% of the DHTz oxidation state over 30 min and 2.5 hours respectively. […] In PBS containing 10% mouse serum, 90% of 3a was retained in the DHTz oxidation state after 1 h. Analogs of tetrazines 4 have been described previously and used broadly for applications in nuclear medicine and cell imaging. […] The stability of a radiolabeled derivative of tetrazine 4b has been studied by Robillard at 37° C. in PBS, serum and blood, with 97%, 87% and 59% retention of the tetrazine observed after 2 hours.
A solution (3 mL) containing 3a (35 μM) in PBS buffer was prepared in a cuvette from stock solutions. Oxidation was monitored by recording solution absorbance at 0, 30 and 150 minutes. The cuvette was stored in the dark between measurements. Comparison of HRP, cytochrome C and hemoglobin: Solutions (1 mL) of 3a (30 μM) in PBS buffer were prepared in a cuvette from stock solutions. To the solutions, either hemoglobin ([…]) or cytochrome C (9 μM) were added and while oxidation was monitored every 30 seconds by measuring absorbance at 325 nm.

[2] = DHTz stability in PBS containing 10% mouse serum; assay type: in vitro ADME; details: 1 h
Text: A challenge to the development of catalytic methods for turning on the tetrazine ligation was the identification of a DHTz/Tz pair that would be stable in both oxidation states (FIG. 1, panel B). For most redox couples, either the DHTz is too readily oxidized in air (e.g., 1), or the Tz is too reactive toward water and other nucleophiles (e.g., 2). The inventors show here that the dipyridyl DHTz/Tz pair (3/4) has good stability in both states (FIG. 1, panel C). Dihydrotetrazines 3 are highly resistant toward background oxidation in organic solvents, and a number of derivatives have been synthesized and shown stable even to silica gel chromatography. […] Aqueous solutions of 3a were handled in glassware that had been first rinsed with 2.0 mM EDTA in PBS to remove adventitious metal impurities. After standing in the dark at 25° C. in PBS buffer, a solution of 3a was monitored by UV-vis and shown to retain 99 and 96% of the DHTz oxidation state over 30 min and 2.5 hours respectively. […] In PBS containing 10% mouse serum, 90% of 3a was retained in the DHTz oxidation state after 1 h. Analogs of tetrazines 4 have been described previously and used broadly for applications in nuclear medicine and cell imaging. […]

O=C(O)CCC(=O)Nc1ccc(C2=NNC(c3ccccn3)=NN2)nc1 [3a, 4-oxo-4-((6-(6-(pyridin-2-yl)-1,4-dihydro-1,2,4,5-tetrazin-3-yl)pyridin-3-yl)amino)butanoic Acid]
retained DHTz oxidation state ([1]; 35 μM in MeOH, ambient light, 1 hour): 99%
retained DHTz oxidation state ([1]; 35 μM in MeOH, ambient light, 2 hours): 98%
retained DHTz oxidation state ([1]; PBS buffer, ambient light, 25° C., 1 hour): 97%
retained DHTz oxidation state ([1]; PBS buffer, ambient light, 25° C., 2 hours): 94%
retained DHTz oxidation state ([1]; PBS buffer, dark, 25° C., 30 min): 99%
retained DHTz oxidation state ([1]; PBS buffer, dark, 25° C., 2.5 hours): 96%
retained in the DHTz oxidation state [2]: 90%
